Test results as given in patent EP1117659B1, “SUBSTITUTED 3-CYANOQUINOLINES AS PROTEIN TYROSINE KINASES INHIBITORS” (Wyeth Holdings Corporation, priority 1998, dated 2000).
pIC50: −log10 of the molar value. In brackets after ≈: the same amount, converted by molar mass. Several values for one entry are separate records, joined by “and”; a condition that tells them apart may be missing. Equal entries are not always repeated. Where two headings read alike, the source gives them in different places.

Experiments:
[1] = target: Recombinant human MEK 1 (MAPKK) / recombinant human ERK2 (MAPK) (Mek-Erk) (Homo sapiens, UniProt P28482+Q02750); experiment: Mitogen Activated Protein Kinase (MAPK) assay, two component coupled Mek-Erk test; type: biochemical; settings: for IC50: read-out: Mek-Erk µM; for pIC50: read-out: Mek-Erk
Recombinant human MEK 1 (MAPKK) / recombinant human ERK2 (MAPK) (Mek-Erk), sequence (P28482 2-360): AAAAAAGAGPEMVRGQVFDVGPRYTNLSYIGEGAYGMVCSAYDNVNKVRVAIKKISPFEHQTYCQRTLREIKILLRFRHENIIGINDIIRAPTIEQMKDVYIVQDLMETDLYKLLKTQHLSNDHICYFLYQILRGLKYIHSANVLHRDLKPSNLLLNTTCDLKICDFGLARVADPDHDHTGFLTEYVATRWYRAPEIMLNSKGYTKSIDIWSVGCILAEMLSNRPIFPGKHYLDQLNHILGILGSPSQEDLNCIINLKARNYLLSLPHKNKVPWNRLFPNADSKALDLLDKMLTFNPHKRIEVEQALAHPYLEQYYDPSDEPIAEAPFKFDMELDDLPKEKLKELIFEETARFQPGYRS
Recombinant human MEK 1 (MAPKK) / recombinant human ERK2 (MAPK) (Mek-Erk), sequence (Q02750 whole entry): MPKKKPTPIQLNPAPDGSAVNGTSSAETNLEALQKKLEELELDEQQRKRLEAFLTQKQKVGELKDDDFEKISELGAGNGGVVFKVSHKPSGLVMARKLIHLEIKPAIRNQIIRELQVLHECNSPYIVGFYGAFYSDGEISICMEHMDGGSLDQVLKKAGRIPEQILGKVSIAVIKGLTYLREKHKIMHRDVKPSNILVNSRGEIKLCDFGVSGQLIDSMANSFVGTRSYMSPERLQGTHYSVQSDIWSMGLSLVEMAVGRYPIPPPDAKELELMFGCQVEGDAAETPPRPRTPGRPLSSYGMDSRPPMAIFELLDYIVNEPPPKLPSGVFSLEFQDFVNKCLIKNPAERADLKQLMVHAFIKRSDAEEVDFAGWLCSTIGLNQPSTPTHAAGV

[2] = target: Epithelial Cell Kinase (ECK) (Homo sapiens, UniProt P29317); experiment: Inhibition of Epithelial Cell Kinase (ECK), immobilized biotinylated peptide, HRP anti-phosphotyrosine readout; type: biochemical; settings: IC50, substrate phosphorylation
Epithelial Cell Kinase (ECK), sequence (P29317 24-976, species assumed): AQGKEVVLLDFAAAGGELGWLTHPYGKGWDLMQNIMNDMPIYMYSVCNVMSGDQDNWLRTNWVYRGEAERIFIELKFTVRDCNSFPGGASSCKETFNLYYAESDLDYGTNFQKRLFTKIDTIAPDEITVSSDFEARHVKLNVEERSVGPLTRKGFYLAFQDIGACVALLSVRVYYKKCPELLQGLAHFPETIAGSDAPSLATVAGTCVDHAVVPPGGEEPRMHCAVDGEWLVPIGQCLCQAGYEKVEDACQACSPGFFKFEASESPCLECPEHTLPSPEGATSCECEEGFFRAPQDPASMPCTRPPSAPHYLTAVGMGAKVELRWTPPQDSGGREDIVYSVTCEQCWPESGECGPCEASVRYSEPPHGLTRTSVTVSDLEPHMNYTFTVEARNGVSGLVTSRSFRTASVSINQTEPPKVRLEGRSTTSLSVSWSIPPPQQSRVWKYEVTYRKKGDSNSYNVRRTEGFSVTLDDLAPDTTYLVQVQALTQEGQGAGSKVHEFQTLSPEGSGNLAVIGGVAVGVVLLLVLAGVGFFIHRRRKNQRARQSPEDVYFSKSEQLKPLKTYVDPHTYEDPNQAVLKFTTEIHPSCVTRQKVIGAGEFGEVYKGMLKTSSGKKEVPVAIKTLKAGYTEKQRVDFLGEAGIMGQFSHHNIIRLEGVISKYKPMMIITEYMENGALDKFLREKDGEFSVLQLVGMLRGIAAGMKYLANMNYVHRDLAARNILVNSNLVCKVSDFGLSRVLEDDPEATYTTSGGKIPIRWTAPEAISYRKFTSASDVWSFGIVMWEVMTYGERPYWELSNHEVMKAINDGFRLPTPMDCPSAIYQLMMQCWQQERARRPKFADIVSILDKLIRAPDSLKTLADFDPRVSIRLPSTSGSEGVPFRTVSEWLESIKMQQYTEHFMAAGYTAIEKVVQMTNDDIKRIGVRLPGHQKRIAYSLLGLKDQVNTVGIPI
Method: In this standard pharmacological test procedure, a biotinylated peptide substrate is first immobilized on neutravidin-coated microtiter plates. The test drug, the Epithelial Cell Kinase (ECK), Mg^++, sodium vanadate (a protein tyrosine phosphatase inhibitor), and an appropriate buffer to maintain pH (7.2) are then added to the immobilized substrate-containing microtiter wells. ATP is then added to initiate phosphorylation. After incubation, the assay plates are washed with a suitable buffer leaving behind phosphorylated peptide which is exposed to horse radish peroxidase (HRP)-conjugated anti-phosphotyrosine monoclonal antibody. The antibody-treated plates are washed again and the HRP activity in individual wells is quantified as a reflection of degree of substrate phosphorylation. […] Multiple entries for a given compound indication it was tested multiple times.

A431 = experiment: Inhibition of Cancer Cell Growth as Measured by Cell Number (Sulforhodamine B); type: cell-based, Human; settings: Homo sapiens, A-431, 48 h, 48 hours exposure
Method: (§1) Human tumor cell lines were plated in 96-well plates (250 µl/well, 1-6 x 10^4 cells/ml) in RPMI 1640 medium, containing 5% FBS (Fetal Bovine Serum). […] After 48 hours exposure to test compounds, cells were fixed with trichloroacetic acid, and stained with Sulforhodamine B. After washing with trichloroacetic acid, bound dye was solubilized in 10 mM Tris base and optical density was determined using plate reader. Under conditions of the assay the optical density is proportional to the number of cells in the well. […] The test procedure is described in details by Philip Skehan et. al, J.Natl. Canc. Inst., 82, 1107-1112 (1990). […] Information about some of the cell lines used in these test procedures is available from the American Type Tissue Collection: Cell Lines and Hybridomas, 1994 Reference Guide, 8th Edition.

SW620 = experiment: as above; type: cell-based, Human; settings: Homo sapiens, SW-620, 48 h, 48 hours exposure
Method: as §1

SK-BR3 = experiment: as above; type: cell-based, Human; settings: Homo sapiens, SK-BR-3, 48 h, 48 hours exposure
Method: as §1

MDA-MB-435 = experiment: as above; type: cell-based, Human; settings: Homo sapiens, MDA-MB-435, 48 h, 48 hours exposure
Method: as §1

[3] = target: T1, Kinase insert Domain containing Receptor (KDR: the catalytic domain of the VEGF receptor) (Homo sapiens, UniProt P35968); experiment: Inhibition of Kinase insert Domain containing Receptor (KDR), radioactive phosphorylation of Glu:Tyr copolymer; type: biochemical; settings: IC50, substrate phosphorylation
T1 construct: KDR: the catalytic domain of the VEGF receptor
T1 sequence (P35968 834-1162 limits assumed): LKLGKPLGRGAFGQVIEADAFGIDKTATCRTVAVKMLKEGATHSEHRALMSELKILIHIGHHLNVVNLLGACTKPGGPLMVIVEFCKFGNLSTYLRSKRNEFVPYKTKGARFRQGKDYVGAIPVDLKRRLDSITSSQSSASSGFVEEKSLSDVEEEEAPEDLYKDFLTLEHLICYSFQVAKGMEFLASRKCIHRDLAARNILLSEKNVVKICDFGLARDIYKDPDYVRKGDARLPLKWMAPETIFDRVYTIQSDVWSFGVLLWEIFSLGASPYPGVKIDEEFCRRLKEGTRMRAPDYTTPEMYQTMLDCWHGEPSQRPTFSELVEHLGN
Method: In this standard pharmacological test procedure, KDR protein is mixed, in the presence or absence of a inhibitor compound, with a substrate peptide to be phosphorylated (a copolymer of glutamic acid and tyrosine, E:Y :: 4:1) and other cofactors such as Mg^++ and sodium vanadate (a protein tyrosine phosphatase inhibitor) in an appropriate buffer to maintain pH (7.2). ATP and a radioactive tracer (either P^32- or P^33- labeled ATP) is then add to initiate phosphorylation. After incubation, the radioactive phosphate associated with the acid-insoluble fraction of the assay mixture is then quantified as reflection of substrate phosphorylation. […] Multiple entries for a given compound indication it was tested multiple times.

3T3 = experiment: Inhibition of Cancer Cell Growth as Measured by Cell Number (Sulforhodamine B); type: cell-based; settings: Mus musculus, NIH3T3; 48 hours exposure
Method: as §1

3T3/c-erbb2 = experiment: as above; type: cell-based; settings: 48 hours exposure
Method: as §1

[4] = target: T2, epidermal growth factor receptor kinase (EGF-R Kinase, recombinant enzyme; His-tagged cytoplasmic domain of EGFR) (Homo sapiens, UniProt P00533); experiment: Inhibition of Epidermal Growth Factor Receptor Kinase (EGF-R) using recombinant enzyme, RR-SRC peptide phosphorylation, 33P-ATP; type: biochemical; settings: for inhibition at 0.5 µM: read-out: %Inh @ 0.5 µM; for pIC50: recombinant enzyme, 90 min at room temperature
T2 construct: EGFR cDNA encoding amino acids 645 - 1186 preceded by Met-Ala-(His)6; Met-Ala-(His)6 (N); made in house; host or cells: Sf9 insect cells, recombinant baculovirus vHcEGFR52
T2 sequence (P00533 669-1210): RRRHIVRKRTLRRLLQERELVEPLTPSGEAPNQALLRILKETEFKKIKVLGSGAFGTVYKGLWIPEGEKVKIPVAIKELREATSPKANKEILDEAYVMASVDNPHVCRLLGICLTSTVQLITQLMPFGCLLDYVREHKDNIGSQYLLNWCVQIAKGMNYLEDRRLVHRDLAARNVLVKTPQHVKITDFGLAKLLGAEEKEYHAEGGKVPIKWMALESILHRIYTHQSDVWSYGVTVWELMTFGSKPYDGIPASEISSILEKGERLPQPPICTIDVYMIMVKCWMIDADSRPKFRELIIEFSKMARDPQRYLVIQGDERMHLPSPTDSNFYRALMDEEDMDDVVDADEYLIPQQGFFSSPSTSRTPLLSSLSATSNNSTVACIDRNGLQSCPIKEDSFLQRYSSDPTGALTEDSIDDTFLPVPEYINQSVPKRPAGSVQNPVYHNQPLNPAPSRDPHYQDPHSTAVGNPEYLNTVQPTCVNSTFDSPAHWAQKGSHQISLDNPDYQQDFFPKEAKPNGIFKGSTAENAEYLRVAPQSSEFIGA
Method: Representative test compounds were evaluated for their ability to inhibit the phosphorylation of the tyrosine residue of a peptide substrate catalyzed by the enzyme epidermal growth factor receptor kinase. The peptide substrate (RR-SRC) has the sequence arg-arg-leu-ile-glu-asp-ala-glu-tyr-ala-ala-arg-gly. The enzyme used in this test procedure is the His-tagged cytoplasmic domain of EGFR. A recombinant baculovirus (vHcEGFR52) was constructed containing the EGFR cDNA encoding amino acids 645 - 1186 preceded by Met-Ala-(His)6. Sf9 cells in 100 mm plates were infected at an moi of 10 pfu/cell and cells were harvested 48 h post infection. A cytoplasmic extract was prepared using 1% Triton X-100 and applied to Ni-NTA column. After washing the column with 20 mM imidazole, HcEGFR was eluted with 250 mM imidazole (in 50 mM Na2HPO4, pH 8.0, 300 mM NaCl). Fractions collected were dialyzed against 10 mM HEPES, pH 7.0, 50 mM NaCl, 10% glycerol, lug/mL antipain and leupeptin and 0.1 mM Pefabloc SC. The protein was frozen in dry ice/methanol and stored -70°C.
Test compounds were made into 10 mg/mL stock solutions in 100% dimethylsulfoxide (DMSO). Prior to experiment, stock solutions were diluted to 500 uM with 100% DMSO and then serially diluted to the desired concentration with HEPES buffer (30 mM HEPES pH 7.4).
For the enzyme reaction, 10 uL of each inhibitor (at various concentrations) were added to each well of a 96-well plate. To this was added 3 uL of enzyme (1:10 dilution in 10mM HEPES, pH 7.4 for final cone. of 1:120). This was allowed to sit for 10 min on ice and was followed by the addition of 5 ul peptide (80 uM final cone.), 10ul of 4X Buffer (Table A), 0.25 uL ^33P-ATP and 12 uL H2O. The reaction was allowed to run for 90 min at room temperature and was followed by spotting the entire volume on to precut P81 filter papers. The filter discs were washed 2X with 0.5% phosphoric acid and radioactivity was measured using a liquid scintillation counter.
The inhibition data for representative compounds of the invention are shown below in TABLE 1. […] The % inhibition of the test compound was determined for at least three different concentrations and the IC50 value was evaluated from the dose response curve. […] CPM(control) is in units of counts per minute and was a number expressing the amount of radiolabled ATP (γ-^33P) incorporated into the RR-SRC peptide substrate by the enzyme after 90 minutes at room temperature in the absence of test compound as measured by liquid scintillation counting. The CPM values were corrected for the background counts produced by ATP in the absence of the enzymatic reaction. […]

A2780 = experiment: Inhibition of Cancer Cell Growth as Measured by Cell Number (Sulforhodamine B); type: cell-based; settings: Homo sapiens, 48 hours exposure
Method: as §1

DDP = experiment: as above; type: cell-based; settings: Homo sapiens; 48 hours exposure
Method: as §1

| IC50 (A2780) [µg/mL] | IC50 (DDP) [µg/mL] | Structure (SMILES) | IC50 [1] [µM] | pIC50 [2] | IC50 (A431) [µg/mL] | IC50 (SW620) [µg/mL] | IC50 (SK-BR3) [µg/mL] | IC50 (MDA-MB-435) [µg/mL] | pIC50 [3] | IC50 (3T3) [µg/mL] | IC50 (3T3/c-erbb2) [µg/mL] | pIC50 [1] | inhibition at 0.5 µM [4] [%] | pIC50 [4] |
| --- | --- | --- | --- | --- | --- | --- | --- | --- | --- | --- | --- | --- | --- | --- |
| – | – | CCOc1cc2ncc(C#N)c(Nc3ccc4[nH]c(=O)oc(=O)c4c3)c2cc1OCC [Example 109, 4-(2,4-Dioxo-1,4-dihydro-2H-benzo[d][1,3]oxazin-6-ylamino)-6,7-diethoxy-quinoline-3-carbonitrile] | > 100 | < 4.32 | > 5 | 2.92 (≈ 6.98 µM) | > 5 | > 5 | 4.62 | > 5 | 4.62 (≈ 11 µM) | – | – | – |
| – | – | CCOc1cc2ncc(C#N)c(Nc3ccc4cn[nH]c4c3)c2cc1OC [Example 115, 7-Ethoxy-4-(indazol-6-ylamino)-6-methoxy-quinoline-3-carbonitrile] | – | < 4.56 | 0.0368 (≈ 0.102 µM) | 0.0212 (≈ 0.059 µM) | 0.022 (≈ 0.0612 µM) | 0.0359 (≈ 0.0999 µM) | 5.25 and < 5.56 | 0.344 (≈ 0.957 µM) | 0.0267 (≈ 0.0743 µM) | 4.60 | 49 | < 6.30 |
| 2.39 (≈ 6.39 µM) | 2.69 (≈ 7.18 µM) | CCOc1cc2ncc(C#N)c(Nc3ccc4[nH]nnc4c3)c2cc1OCC [Example 103, 4-(1H-Benzotriazol-5-ylamino)-6,7-diethoxy-quinoline-3-carbonitrile] | – | < 4.27 | 1.61 (≈ 4.3 µM) | 2.64 (≈ 7.04 µM) | 0.767 (≈ 2.05 µM) | 0.309 (≈ 0.825 µM) | – | – | – | – | – | – |
| – | – | CCOc1cc2ncc(C#N)c(Nc3ccc4c(c3)C(=O)OC4)c2cc1OCC [Example 111, 6,7-Diethoxy-4-(3-oxo-1,3-dihydro-isobenzofuran-5-ylamino)-quinoline-3-carbonitrile] | > 100 | < 4.29 | > 5 | 1.56 (≈ 4.02 µM) | > 5 | 3.4 (≈ 8.74 µM) | < 4.11 | > 5 | 3.3 (≈ 8.48 µM) | – | 10 | < 6.00 |
| – | – | CCOc1cc2ncc(C#N)c(Nc3ccc4c(c3)CCC4)c2cc1OCC [Example 108, 6,7-Diethoxy-4-(indan-5-ylamino)-quinoline-3-carbonitrile] | – | < 5.57 | 0.342 (≈ 0.916 µM) | < 0.0005 | 0.294 (≈ 0.787 µM) | 0.352 (≈ 0.943 µM) | < 4.10 | 0.525 (≈ 1.41 µM) | 0.0198 (≈ 0.053 µM) | – | – | – |
| 0.044 (≈ 0.109 µM) | 0.107 (≈ 0.266 µM) | CCOc1cc2ncc(C#N)c(Nc3ccc4c(c3)C(=O)NC4=O)c2cc1OCC [Example 104, 4-(1,3-Dioxo-2,3-dihydro-1H-isoindol-5-ylamino)-6,7-diethoxy-quinoline-3-carbonitrile] | – | < 4.30 | 0.049 (≈ 0.122 µM) | 0.207 (≈ 0.514 µM) | 0.034 (≈ 0.0845 µM) | 0.021 (≈ 0.0522 µM) | < 4.13 | – | – | 4.46 | – | – |
